Measurements from publication PMC3567212 (Biochemistry, 2012).
Positions count from the first letter of the chain named.

How the values were obtained:
Test in all cases: coupled spectrophotometric assay
Format in all cases: biochemical
[1] = target: T1, Rhizobium etli pyruvate carboxylase (RePC) (Rhizobium etli, UniProt Q2K340)
T1 sequence (Q2K340 1-1154): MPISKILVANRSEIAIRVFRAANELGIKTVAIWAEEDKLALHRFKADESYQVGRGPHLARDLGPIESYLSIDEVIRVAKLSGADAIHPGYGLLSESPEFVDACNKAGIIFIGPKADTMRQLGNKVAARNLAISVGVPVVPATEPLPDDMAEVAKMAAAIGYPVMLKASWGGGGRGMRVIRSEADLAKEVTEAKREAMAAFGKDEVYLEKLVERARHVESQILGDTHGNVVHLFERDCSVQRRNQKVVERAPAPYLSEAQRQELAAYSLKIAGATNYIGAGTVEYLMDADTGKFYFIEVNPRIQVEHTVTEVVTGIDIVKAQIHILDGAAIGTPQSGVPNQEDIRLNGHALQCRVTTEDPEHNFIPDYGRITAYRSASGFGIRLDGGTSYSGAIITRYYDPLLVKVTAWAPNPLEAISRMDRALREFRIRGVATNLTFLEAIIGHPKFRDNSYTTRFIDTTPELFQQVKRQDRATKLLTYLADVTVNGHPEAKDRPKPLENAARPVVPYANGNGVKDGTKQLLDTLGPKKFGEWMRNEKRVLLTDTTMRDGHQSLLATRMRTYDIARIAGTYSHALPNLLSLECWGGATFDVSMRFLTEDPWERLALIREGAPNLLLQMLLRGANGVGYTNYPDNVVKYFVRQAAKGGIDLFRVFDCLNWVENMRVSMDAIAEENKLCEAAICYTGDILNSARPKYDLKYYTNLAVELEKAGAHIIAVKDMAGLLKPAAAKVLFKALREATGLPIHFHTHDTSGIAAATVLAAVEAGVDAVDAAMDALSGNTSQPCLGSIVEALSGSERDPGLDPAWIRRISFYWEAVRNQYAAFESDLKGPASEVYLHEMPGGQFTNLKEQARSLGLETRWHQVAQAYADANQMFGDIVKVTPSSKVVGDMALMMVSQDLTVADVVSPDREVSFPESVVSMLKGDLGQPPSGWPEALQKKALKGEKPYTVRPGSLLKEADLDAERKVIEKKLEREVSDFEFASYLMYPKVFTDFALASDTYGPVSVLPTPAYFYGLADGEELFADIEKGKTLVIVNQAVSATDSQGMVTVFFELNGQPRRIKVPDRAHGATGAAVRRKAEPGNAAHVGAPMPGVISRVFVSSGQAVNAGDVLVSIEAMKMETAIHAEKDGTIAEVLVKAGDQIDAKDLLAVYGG

[2] = target: Rhizobium etli pyruvate carboxylase (RePC) (Rhizobium etli, UniProt Q2K340, R472S)
[3] = target: T2, Rhizobium etli pyruvate carboxylase (RePC) (Rhizobium etli, UniProt Q2K340, R427K)
T2 sequence (Q2K340 1-1154 R427K): T1 sequence (Q2K340 1-1154) with R427K

N[C@@H](CC(=O)O)C(=O)O [L-aspartate]
Ki [1]: 5 ± 0.6 mM | Ki [2]: 7 ± 1 mM | Ki [3]: 4.5 ± 0.6 mM
